Results: patent US20060014704A1, “Compounds and their preparation for the treatment of Alzheimer's disease by inhibiting beta-amyloid peptide production” (priority 2004, published 2006)
“Also recorded” adds a separate entry of the source. Read-outs that look alike come from different tables or passages of the source.

What was measured:
[1] = system: Aβ40 and Aβ42 production, CHO-APP/PS1 cells; experiment: Secreted Aβ ELISA in CHO-APP/PS1 cells (wild-type PS1); type: cell-based, Chinese hamster
Method: (§1) The effects of Rg5 on the Aβ42 generation were much smaller as compared to Rgk351 and Rk1.
(§2) FIG. 10 depicts the effects of native ginsenosides on Aβ42 production. CHO cells stably transfected with human APP695 together with either wild-type (A, CHO-APP/PS1 cells) or ΔE9 FAD mutant (B, CHO-APP/ΔE9PS1 cells) forms of PS1 were used. Cells were treated with the indicated compounds (at 50 μM) for 8 hrs. Levels of secreted Aβ40 and Aβ42 in the medium were determined by ELISA and normalized to intracellular full-length APP. In CHO-APP/PS1 cells, average Aβ amounts in control samples were 320 pM for Aβ40 and 79 pM for Aβ42. The relative levels of Aβ and Aβ42 were normalized to values obtained from non-treated and vehicle-treated cells and are shown as % to control+s.d.). One of three representative experiments are shown.
(§3) CHO-APP/PS1 (A) and CHO-APP/ΔE9PS1 (B) cells were treated with the indicated compounds at 50 μM for 8 hrs and the levels of secreted Aβ40 and Aβ42 were determined as described in FIG. 1. […] The PS1-ΔE9 FAD mutation diminished the Aβ42 response to Rk1 treatment (B).

γ-secretase = γ-secretase (Homo sapiens, UniProt P49768); experiment: Cell-free γ-secretase assay (CHAPSO-solubilized membrane fractions, recombinant substrates, Aβ ELISA); type: biochemical
Method: (A) CHAPSO-solubilized membrane fractions were incubated with recombinant γ-secretase substrates together with the indicated compounds (at 100 μM) and the levels of Aβ42 and Aβ40 were determined by ELISA as described (27-29). (B) Dose-response of Aβ40 and Aβ42-lowering activity of Rk1 and (20S)Rg3 in a cell-free γ-secretase assay.
Next, the inhibitory effects of Rk1 and (20S)Rg3 on Aβ generation in an in vitro γ-secretase assay was studied. […] In contrast, naproxen, an NSAID without Aβ42-lowering activity, had no effects on Aβ42 production (FIG. 15A).

[2] = target: T1, γ-secretase cleavage of p75 neurotrophin receptor (p75-ICD) (Homo sapiens, UniProt P49768); experiment: Cell-free generation of p75-ICD from membrane fractions of 293 cells overexpressing p75-AE; type: biochemical
T1 construct: Membrane fractions isolated from 293 cells overexpressing either APP (A), Notch-AE (B) or p75-AE (C); endogenous in cells; host or cells: 293 cells (membrane fractions); only the substrates APP, Notch-ΔE and p75-ΔE are overexpressed
Method: (§4) Membrane fractions isolated from 293 cells overexpressing either APP (A), Notch-AE (B) or p75-AE (C) and incubated in the presence of indicated compounds: Compound E (CpdE, general γ-secretase inhibitor), Rgk351, Rk1 and sulindac sulfide (SS).

[3] = system: Aβ42 production, CHO-APP/ΔE9PS1 cells; experiment: Secreted Aβ ELISA in CHO cells co-expressing human APP and FAD mutant PS1 (ΔE9, L286V); type: cell-based, Chinese hamster
Method: as §1, §2, §3

cell viability = experiment: Cell viability of treated cells; type: cell-based; details: up to 100 μM, 8 hour treatment
Method: as §3
Tables 1-3 Structure of ginsenosides utilized in the study and their effects on Aβ42 generation. They differ at the two or three side chains attached to the common triterpene backbone known as dammarane. The common structure skeleton for each group of ginsenosides is shown in the top panel. Ginsenosides that harbor Aβ42-lowering activity are indicated in the far right column of the tables: Aβ42-lowering activity (“Yes”), no profound effects (“No”), and non-determined (“ND”). Ginsenosides that affected cell viability are indicated as “Cytotoxic.” Abbreviation for carbohydrates are as follows: Glc, D-glucopyranosyl; Ara (pyr), L-arabinopyranosyl; Ara (fur), L-arabinofuranyosyl; Rha, L-rhamnopyranosyl.
Steaming ginseng at high temperature gave rise to additional ginsenosides with enhanced pharmacological activity, including (20S)Rg3, Rk1 and Rg5 (22-25). […] Aβ40 levels were not changed by treatment with any of the ginsenosides tested. The potency of Aβ42-lowering activity was highest with Rk1 and (20S)Rg3. […] These studies provide a structure-activity relationship between the chemical structures of ginsenosides and Aβ42-lowering activity, further providing the basis for designing additional Aβ42-lowering analogues as well as for defining a class of compounds that harbor Aβ42-lowering activity.

[4] = system: Aβ40 and Aβ42 production, CHO cells stably transfected with human APP695; experiment: Secreted Aβ40/Aβ42 ELISA in CHO cells expressing human APP (CHO-APP cells); type: cell-based, Chinese hamster; parameters: key to Aβ42-lowering activity: Aβ42-lowering activity (“Yes”); no profound effects (“No”); non-determined (“ND”); Ginsenosides that affected cell viability are indicated as “Cytotoxic.”
Method: The CHO cells were treated with the indicated compounds (at 50 μg/ml) for 8 hrs. Aβ42 levels in the medium were measured by ELISA and normalized to intracellular full-length APP.
The potential effects of ginsenosides and their analogues in treating AD were examined. First, a number of ginsenosides were screened based on their effects on Aβ generation. The effects of various ginsenosides on Aβ (e.g., Aβ40 and Aβ42) production was initially accessed by incubating the Chinese hamster ovary (CHO) cells expressing human APP(CHO-APP cells) with each ginsenoside purified from unprocessed ginseng (known as “white ginseng”). These representative ginsenosides included Rb1, Rb2, Rc, Rd, Re, Re, Rg1 and Rg2 and differ in their side chains and sugar moieties.
After 8 hours of incubation, the media were collected and the levels of secreted Aβ40 and Aβ42 were determined by ELISA.

[5] = target: T2, γ-secretase cleavage of APP (AICD) (Homo sapiens, UniProt P49768); experiment: Cell-free generation of AICD from membrane fractions of 293 cells overexpressing APP; type: biochemical
T2 construct: Membrane fractions isolated from 293 cells overexpressing either APP (A), Notch-AE (B) or p75-AE (C); endogenous in cells; host or cells: 293 cells (membrane fractions); only the substrates APP, Notch-ΔE and p75-ΔE are overexpressed
Method: as §4

[6] = system: full-length APP and APP C-terminal fragments, Neuro2a-APPsw cells; experiment: Western blot analysis of APP processing in neuro2a cells expressing APPsw; type: cell-based, mouse
Source text: FIG. 13. depicts an analysis of APP processing after Rk1 treatment. Steady-state levels of full-length APP and APP C-terminal fragments (APP-CTFs) were examined by Western blot analysis using anti-R1 antibody. […] Correlated Aβ42 levels for each sample are shown in the bottom panel.

Q: How did the “potency of Aβ42-reducing activity (rank)” value ([1]; 50 μM, 8 hrs, FIG. 11) turn out when C=C(CCC=C(C)C)[C@H]1CC[C@]2(C)[C@@H]1[C@H](O)C[C@@H]1[C@@]3(C)CC[C@H](O[C@@H]4O[C@H](CO)[C@@H](O)[C@H](O)[C@H]4O[C@@H]4O[C@H](CO)[C@@H](O)[C@H](O)[C@H]4O)C(C)(C)[C@@H]3CC[C@]12C [Rk1] was run?
A: The value was “Rk1>/=(20S)Rg3>Rg5>(20R)Rg3; also recorded: highest”.

Q: What about the Aβ42 levels ([1]; CHO cells co-expressing human APP and wild-type presenilin 1, FIG. 8) of the same molecule?
A: Its Aβ42 levels is “reduced the Aβ42 levels”.

Q: What about the “secretion of Aβ42” value ([1]; heat-processing derived ginsenosides, 50 μM, 8 hrs, FIG. 11) of the same molecule?
A: The value was “selectively lowered the secretion of Aβ42”.

Q: What about the “Aβ generation in a cell-free γ-secretase assay” value (γ-secretase; FIG. 15) of the same molecule?
A: Its value is “inhibits Aβ generation”.

Q: And the “Aβ42 generation in vitro” value (γ-secretase; cell-free γ-secretase assay, FIG. 15 (100 μM in A))?
A: Its value is “inhibit the Aβ42 production; also recorded: potently inhibited”.

Q: What about the “Aβ40 generation in vitro” value (γ-secretase; cell-free γ-secretase assay, FIG. 15B) of the same molecule?
A: Its value is “inhibited both Aβ40 and Aβ42 with a similar potency”.

Q: And the IC50 (γ-secretase; cell-free γ-secretase assay, FIG. 15B, read-out: IC50 for Aβ40)?
A: Its IC50 is 27 ± 3 µM.

Q: What about the IC50 (γ-secretase; cell-free γ-secretase assay, FIG. 15B, read-out: IC50 for Aβ42) of the same molecule?
A: Its IC50 is 32 ± 5 µM.

Q: And the “cell-free generation of p75-ICD” value [2]?
A: Its value is “does not significantly affect; also recorded: not affected”.

Q: What about the “Aβ42-lowering response in PS1 ΔE9 FAD mutant cells compared to PS1 wild-type cells” value ([3]; 50 μM, 8 hrs, FIG. 11B vs 11A) of the same molecule?
A: The value was “diminished”.

Q: And the Aβ42 levels ([3]; CHO cells co-expressing human APP and FAD mutant presenilin 1 (delta E9, L286V), FIG. 8)?
A: Its Aβ42 levels is “reduced the Aβ42 levels”.

Q: What about the cell viability (cell viability) of the same molecule?
A: The cell viability was “not affected”.

Q: And the “generation of Aβ42 (Aβ42 levels in the medium, ELISA, normalized to intracellular full-length APP)” value ([4]; 50 μg/ml, 8 hrs, FIG. 4)?
A: The value was “reduce the generation of Aβ42”.

Q: And the “Aβ42-lowering effect compared with other agents” value ([4]; CHO-APP cells)?
A: The value was “most effective”.

Q: What about the IC50 ([4]; CHO-APP cells, FIG. 12A, read-out: IC50 of Aβ42 lowering activity) of the same molecule?
A: The IC50 was about 20 µM.

Q: What about the “preference for Aβ42 vs. Aβ40 in cell-based assay” value ([4]; FIG. 6 / FIG. 12B) of the same molecule?
A: Its value is “preferentially reduced Aβ42 (vs. Aβ40); also recorded: preferentially lowers Aβ42 (vs. Aβ40); also recorded: rather selective to Aβ42; also recorded: primarily affect Aβ42 production”.

Q: And the “Aβ42 in the medium, dose-response” value ([4]; dose-dependent, FIG. 5 / FIG. 12A)?
A: The value was “reduced Aβ42; also recorded: lower Aβ42 in a dose-dependent manner”.

Q: And the “production of Aβ42 in cells” value ([4]; general statement)?
A: The value was “lower the production of Aβ42”.

Q: What about the “concentration at which secretion of Aβ40 was affected” value ([4]; only at very high concentration) of the same molecule?
A: Its value is about 100 µM.

Q: And the Aβ40 production ([4]; overnight treatment, FIG. 12B)?
A: Its Aβ40 production is “slightly affected”.

Q: And the Aβ42 production ([4]; overnight treatment, FIG. 12B)?
A: The Aβ42 production was “reduce Aβ42 production”.

Q: And the Aβ42-lowering activity ([4]; summary of Tables 1-3)?
A: Its Aβ42-lowering activity is “Yes”.

Q: What about the “cell-free generation of AICD” value [5] of the same molecule?
A: The value was “does not significantly affect; also recorded: not affected”.

Q: What about the “full-length APP levels” value ([6]; Neuro2a-APPsw cells) of the same molecule?
A: Its value is “did not affect”.

Q: What about the “APP C-terminal fragments, steady-state levels” value ([6]; neuro2a cells expressing APPsw) of the same molecule?
A: Its value is “increased accumulation; also recorded: up-regulated”.
